Test results as given in paper PMC6522510 (Nature Communications, 2019).
Read-outs that look alike come from different tables or passages of the source.

Legend:
Parameters in all cases: species or system AML cell lines (8); Primary HTS, single concentration about 10 uM, Cell Titer Glo viability; log10 luminescence, per cent inhibition relative to cycloheximide control
Conditions in all cases: 72 h, relative to cycloheximide control, log10 luminescence, inhibitor
[1] = system: CMS
[2] = system: ML-2
[3] = system: U937
[4] = system: MV4-11
[5] = system: M07e
[6] = system: CHRF288-11
[7] = system: MOLM-13
[8] = system: CMK

Oc1ncnc2[nH]ncc12 [SJ000285807-6, ALLOPURINOL]
CMS %inh [1]: -3.837%
ML-2 %inh [2]: -1.752%
U937 %inh [3]: 0.524%
MV4-11 %inh [4]: -0.8311%
M07e %inh [5]: -3.01%
CHRF288-11 %inh [6]: 0.3228%
MOLM-13 %inh [7]: -2.79%
CMK %inh [8]: -2.837%

COc1ccc(C(Cl)=C(c2ccc(OC)cc2)c2ccc(OC)cc2)cc1 [SJ000285822-4, CHLOROTRIANISENE]
CMS %inh [1]: 1.562%
ML-2 %inh [2]: 4.119%
U937 %inh [3]: 7.913%
MV4-11 %inh [4]: 5.688%
M07e %inh [5]: 9.609%
CHRF288-11 %inh [6]: -2.199%
MOLM-13 %inh [7]: 5.231%
CMK %inh [8]: 7.136%

NC(N)=Nc1nc(CSCC/C(N)=N/S(N)(=O)=O)cs1 [SJ000285829-7, FAMOTIDINE]
CMS %inh [1]: 0.7839%
ML-2 %inh [2]: 2.616%
U937 %inh [3]: 7.705%
MV4-11 %inh [4]: -0.5719%
M07e %inh [5]: 1.389%
CHRF288-11 %inh [6]: -4.142%
MOLM-13 %inh [7]: 1.07%
CMK %inh [8]: 0.6614%

CCc1cccc2c3c([nH]c12)C(CC)(CC(=O)O)OCC3 (stereo not shown) [SJ000285831-7, ETODOLAC]
CMS %inh [1]: 0.03623%
ML-2 %inh [2]: 1.517%
U937 %inh [3]: -0.08316%
MV4-11 %inh [4]: 1.346%
M07e %inh [5]: 4.534%
CHRF288-11 %inh [6]: -0.814%
MOLM-13 %inh [7]: 1.754%
CMK %inh [8]: 4.628%

Nc1ccc(S(=O)(=O)Nc2ccccn2)cc1 [SJ000285852-4, SULFAPYRIDINE]
CMS %inh ([1]; CMS %inh, 10 µM): 2.156%
ML-2 %inh ([2]; ML-2 %inh, 10 µM): 1.702%
U937 %inh ([3]; U937 %inh, 10 µM): 2.235%
MV4-11 %inh ([4]; MV4-11 %inh, 10 µM): 0.2362%
M07e %inh ([5]; M07e %inh, 10 µM): -0.2217%
CHRF288-11 %inh ([6]; CHRF288-11 %inh, 10 µM): -1.153%
MOLM-13 %inh ([7]; MOLM-13 %inh, 10 µM): -2.284%
CMK %inh ([8]; CMK %inh, 10 µM): -3.962%

Nc1ccc(S(=O)(=O)Nc2ccccn2)cc1 [SJ000285852-5, SULFAPYRIDINE]
CMS %inh ([1]; CMS %inh, 10 µM): 2.339%
ML-2 %inh ([2]; ML-2 %inh, 10 µM): -1.492%
U937 %inh ([3]; U937 %inh, 10 µM): 0.04414%
MV4-11 %inh ([4]; MV4-11 %inh, 10 µM): 1.788%
M07e %inh ([5]; M07e %inh, 10 µM): 0.899%
CHRF288-11 %inh ([6]; CHRF288-11 %inh, 10 µM): 1.364%
MOLM-13 %inh ([7]; MOLM-13 %inh, 10 µM): 1.863%
CMK %inh ([8]; CMK %inh, 10 µM): -1.27%

CC(C(=O)O)c1ccc(C(=O)c2cccs2)cc1 (stereo not shown) [SJ000285866-4, SUPROFEN]
CMS %inh [1]: -1.053%
ML-2 %inh [2]: 4.32%
U937 %inh [3]: 0.9376%
MV4-11 %inh [4]: -0.1438%
M07e %inh [5]: -0.1194%
CHRF288-11 %inh [6]: 0.5358%
MOLM-13 %inh [7]: 1.517%
CMK %inh [8]: 0.7662%

Cc1ccc(S(=O)(=O)NC(=O)NN2CCCCCC2)cc1 [SJ000285887-7, TOLAZAMIDE]
CMS %inh [1]: 0.4752%
ML-2 %inh [2]: -1.198%
U937 %inh [3]: -0.04508%
MV4-11 %inh [4]: 0.7665%
M07e %inh [5]: 4.47%
CHRF288-11 %inh [6]: 90.56%
MOLM-13 %inh [7]: 0.3359%
CMK %inh [8]: -1.031%

NCCCC[C@H](N[C@@H](CCc1ccccc1)C(=O)O)C(=O)N1CCC[C@H]1C(=O)O [SJ000285890-4, LISINOPRIL]
CMS %inh ([1]; CMS %inh, 10 µM): -0.4714%
ML-2 %inh ([2]; ML-2 %inh, 10 µM): -0.08728%
U937 %inh ([3]; U937 %inh, 10 µM): 5.753%
MV4-11 %inh ([4]; MV4-11 %inh, 10 µM): 2.293%
M07e %inh ([5]; M07e %inh, 10 µM): -2.951%
CHRF288-11 %inh ([6]; CHRF288-11 %inh, 10 µM): -6.515%
MOLM-13 %inh ([7]; MOLM-13 %inh, 10 µM): -2.286%
CMK %inh ([8]; CMK %inh, 10 µM): 2.277%

NCCCC[C@H](N[C@@H](CCc1ccccc1)C(=O)O)C(=O)N1CCC[C@H]1C(=O)O [SJ000285890-5, LISINOPRIL]
CMS %inh ([1]; CMS %inh, 10 µM): -0.7769%
ML-2 %inh ([2]; ML-2 %inh, 10 µM): 2.151%
U937 %inh ([3]; U937 %inh, 10 µM): 0.1781%
MV4-11 %inh ([4]; MV4-11 %inh, 10 µM): 1.898%
M07e %inh ([5]; M07e %inh, 10 µM): -0.6293%
CHRF288-11 %inh ([6]; CHRF288-11 %inh, 10 µM): 0.1312%
MOLM-13 %inh ([7]; MOLM-13 %inh, 10 µM): -1.932%
CMK %inh ([8]; CMK %inh, 10 µM): -4.631%

CCCCNc1cc(C(=O)O)cc(S(N)(=O)=O)c1Oc1ccccc1 [SJ000285893-7, BUMETANIDE]
CMS %inh ([1]; CMS %inh, 10 µM): 2.865%
ML-2 %inh ([2]; ML-2 %inh, 10 µM): -1.959%
U937 %inh ([3]; U937 %inh, 10 µM): 1.768%
MV4-11 %inh ([4]; MV4-11 %inh, 10 µM): -2.25%
M07e %inh ([5]; M07e %inh, 10 µM): -2.011%
CHRF288-11 %inh ([6]; CHRF288-11 %inh, 10 µM): -2.258%
MOLM-13 %inh ([7]; MOLM-13 %inh, 10 µM): -2.419%
CMK %inh ([8]; CMK %inh, 10 µM): -6.073%
